Experimental data published in patent publication US9771368B2, “18F-labelled folates” (priority 2007, dated 2017).

What was measured:
folate receptor [1] = target: T1, folate receptor (Homo sapiens, UniProt P15328); assay: ex vivo biodistribution studies in nude mice bearing KB xenografts tumors; settings: nude mice, KB xenograft tumors; ~2 MBq radiotracer; blockade group 200 μg natural folic acid 10 min prior; 90 min post injection
T1 construct: endogenous in cells; host or cells: KB tumour xenografts in nude mice
Method: (§1) 2′-[^18F]fluoro-folic acid was applied in ex vivo biodistribution studies using eight nude mice bearing KB xenografts tumors. ˜2 MBq of the radiotracer were injected into each animal. In a blockade group 200 μg natural folic acid was injected 10 min prior to the radiotracer. The animals were scarified 90 min post injection.

folate receptor [2] = assay: as above
Method: as §1

folate receptor [3] = assay: in vivo PET imaging in nude mice bearing KB xenografts tumors
Method: In vivo PET imaging using the 2′-[^18F]fluoro-folic acid was performed in nude mice bearing KB xenografts tumors. Ca. 10 MBq of the radiotracer were injected into each animal. In the blockade group 200 μg natural folic acid was injected 10 min prior to the radiotracer. The PET scans were acquired from 30 min to 90 min post injection.

T1 sequence (P15328 25-234 limits assumed): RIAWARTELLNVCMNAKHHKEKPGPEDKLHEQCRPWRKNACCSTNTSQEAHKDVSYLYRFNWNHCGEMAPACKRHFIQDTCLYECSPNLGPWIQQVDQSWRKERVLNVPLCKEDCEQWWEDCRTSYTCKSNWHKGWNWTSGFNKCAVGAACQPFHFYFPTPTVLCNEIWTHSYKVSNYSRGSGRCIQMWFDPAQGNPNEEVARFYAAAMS

Nc1nc2ncc(CNc3ccc(C(=O)N[C@@H](CCC(=O)O)C(=O)O)c([18F])c3)nc2c(=O)[nH]1 [2′-[^18F]fluoro-folic acid]
specific uptake of the radiotracer in folate receptor-positive KB tumors, ratio of specific blockade (folate receptor [1]): 86.6%
uptake in folate receptor-positive tissues (FIG. 1) (folate receptor [2]; ex vivo biodistribution, nude mice bearing KB xenografts): high specific uptake
specific uptake in the kidneys, specific blockade (folate receptor [2]; nude mice, kidneys, ~2 MBq radiotracer, blockade group 200 μg natural folic acid 10 min prior, 90 min post injection): 95.5%
uptake of the radiotracer in the kidney cortex (folate receptor [3]; PET, kidney cortex, 30-90 min post injection): high specific uptake
uptake of the radiotracer in the kidney medulla (folate receptor [3]; PET, kidney medulla, 30-90 min post injection): no uptake
specificity of uptake (blockade by natural folic acid) (folate receptor [3]; ca. 10 MBq, blockade group 200 μg natural folic acid 10 min prior, PET 30-90 min post injection): highly specific and blocked by natural folic acid
